Broadly, the viability is a read-out of living cells in per cent, often relative to untreated cells.

SMILES strings stand for the structures.

The series in a line: in vitro. The following applies: human, hela cells, % viability.
In the case of `CC(=O)N(C)c1ncc(Br)cc1C(=O)NCc1ccc2c(c1)CCO2` [CBK076544], the viability at 28.5 h, 10 µM was found to be 93.5%.
In the case of `COc1ccc(-c2ccc(C(=O)NCCN3CCOCC3)c(N(C)C(C)=O)n2)cc1` [CBK076545], the viability at 28.5 h, 10 µM came out at 102%.
To `CN1CCN(C(=O)c2ccc(-c3ccccc3)nc2NCCc2ccccn2)CC1` [CBK076550] belongs 93.3%.
The value for `O=C(NC1CCCCC1)c1ccc(-c2ccccc2)nc1NCCc1ccccn1` [CBK076553] was 101%; that for `O=C(NCC1COc2ccccc2O1)c1ccc(-c2ccccc2)nc1NCCc1ccccn1` (stereo not shown) [CBK076554] was 95.9%; that for `CC(=O)N(C)c1nc(-c2cccc(N(C)C)c2)ccc1C(=O)N(C)C` [CBK076555] was 92.3%.
The value for `O=C(Nc1ccc2c(c1)OCO2)c1ccc(-c2ccccc2)nc1NCCc1ccccn1` [CBK076574] was 102%; that for `COc1ccc(OCCNC(=O)c2ccc(-c3ccc(C(C)=O)s3)nc2N(C)C(C)=O)cc1` [CBK076576] was 95.5%.
As to `CC(=O)c1ccccc1-c1ccc(C(=O)NCCc2ccccn2)c(NCC2CC2)n1` [CBK076580], the viability at 28.5 h, 10 µM stood at 98.8%.
The value for `CN1CCN(C(=O)c2ccc(-c3cccc(C(=O)NCCO)c3)nc2N(C)C)CC1` [CBK076581] was 91.8%; that for `COc1ccc(OCCNC(=O)c2ccc(-c3cccc(N(C)C)c3)nc2N(C)C(C)=O)cc1` [CBK076587] was 92.8%.
The value for `COc1ccc2[nH]cc(CCNC(=O)c3ccc(-c4cccc(N(C)C)c4)nc3N(C)C(C)=O)c2c1` [CBK076589] was 101%; that for `CN(C)CCN(C)C(=O)c1ccc(-c2cccc(C(=O)NCCO)c2)nc1N1CCOCC1` [CBK076592] was 92.5%.
The value for `CC(=O)NCCNC(=O)c1ccc(-c2ccccc2)nc1NCCc1ccccn1` [CBK076595] was 91.3%; that for `COc1ccc2[nH]cc(CCNC(=O)c3cc(-c4cccc(NC(C)=O)c4)cnc3N(C)S(C)(=O)=O)c2c1` [CBK076599] was 101%.
For the compound `CN(C)CCN(C)C(=O)c1ccc(-c2cccc(C(=O)NCCO)c2)nc1NCC1CC1` [CBK076603], the viability at 28.5 h, 10 µM turned out to be 94%.
The value for `CC(=O)c1ccc(-c2ccc(C(=O)NCC3COc4ccccc4O3)c(NCc3cccnc3)n2)s1` (stereo not shown) [CBK076608] was 97.9%; that for `NS(=O)(=O)c1ccc(CCNC(=O)c2ccc(-c3ccccc3)nc2NCCc2ccccn2)cc1` [CBK076616] was 111%.
The value for `C=C(C)CNC(=O)c1cc(-c2cccc(NC(C)=O)c2)cnc1N(C)S(C)(=O)=O` [CBK076622] was 93.9%; that for `CC(=O)N(C)c1nc(-c2cccc(N(C)C)c2)ccc1C(=O)Nc1ccc(C(F)(F)F)cc1` [CBK076623] was 98.5%; that for `CC(=O)N(C)c1nc(-c2cccc(N(C)C)c2)ccc1C(=O)NCc1cccnc1` [CBK076639] was 101%.
To `COc1ccc([C@@]23CC[C@@H](NC(=O)c4ccc(SC(F)(F)F)cc4)C[C@@H]2N(C)CC3)cc1OC` [CBK076654T] belongs 94.9%.
`COc1ccc([C@@]23CC[C@@H](NC(=O)c4ccc(Br)c(C)c4)C[C@@H]2N(C)CC3)cc1OC` [CBK076656T]: the viability at 28.5 h, 10 µM came to 81.2%.
To `COc1ccccc1-c1nnc(SC)n1-c1ccc(C)cc1` [CBK076670] belongs 93.2%; to `CC(C)C1SC(=NC2CC3CCC2C3)N(C)C1=O` (stereo not shown) [CBK076727], 90.6%.
The value for `CCC1CCCCN1C(=O)c1cc(C)nc(Cl)c1` (stereo not shown) [CBK076748] was 102%; that for `CC(C)CNc1nnc(-c2ccccc2[N+](=O)[O-])s1` [CBK076755] was 82.1%.
To `CN1C[C@H](CNC(=O)Nc2ccc(F)c(F)c2)[C@@H](c2ccc(Cl)c(Cl)c2)C1` [CBK076770] belongs 95.7%; to `O=C(O)C1CCN(c2ncnc3scc(-c4ccccc4)c23)CC1` [CBK076784], 95.6%.
With `O=C(NC(=O)c1ccc(F)c(Cl)c1)Nc1nnc(C(F)(F)F)s1` [CBK076830], the viability at 28.5 h, 10 µM amounted to 88.6%.
`O=C(Nc1nnc(C(F)(F)F)s1)c1ccc(F)c(Cl)c1` [CBK076831]: the viability at 28.5 h, 10 µM was found to be 92.2%.
The value for `COc1cc(NC(=O)c2ccco2)c(C(=O)O)cc1OC` [CBK076926] was 91.6%.
The value for `CN1CCN(c2ccc(NS(=O)(=O)c3ccc(Cl)cc3)cc2)CC1` [CBK076932] was 97.9%; that for `c1ncc(OC2CCNC2)nc1OCCN1CCOCC1` (stereo not shown) [CBK077311T] was 91.2%; that for `CC(C)(C)c1ccc(C(=O)CC(C(=O)O)N2CCN(c3cccc(Cl)c3)CC2)cc1` (stereo not shown) [CBK077385] was 90.9%.
The value for `COc1ccc(/C=C(\NC(C)=O)C(=O)N2CCNCC2)cc1` [CBK077408] was 90.5%.
For the compound `C/C(=N\OCC(=O)N(Cc1ccccc1)c1ccccc1C(=O)O)c1cccs1` [CBK077414], the viability at 28.5 h, 10 µM stood at 94.2%.
The value for `O=C(O)C1CCCCN1S(=O)(=O)c1ccc(Cl)cc1` (stereo not shown) [CBK077418] was 91.6%; that for `c1cncc(COc2cncc(OC3CCNC3)n2)c1` (stereo not shown) [CBK077419T] was 94.3%; that for `O=C(O)CCCCCNc1ncnc2sc3c(c12)CCCC3` [CBK077446] was 102%.
The value for `N=C1S/C(=C/c2ccc(-c3ccccc3C(=O)O)o2)C(=O)N1c1nccs1` [CBK077624] was 93.9%.
As for `COC(=O)c1cc(NS(=O)(=O)c2cc(Cl)ccc2Cl)cc(C(=O)OC)c1` [CBK077853], the viability at 28.5 h, 10 µM came to 105%.
To `O=C(O)c1cc(Cl)c2c(c1)[C@@H]1C=CC[C@@H]1[C@H](c1cccc(Br)c1)N2` [CBK077927] belongs 106%; to `O=C1Nc2ccccc2/C1=C/c1ccc(-c2cccc(C(=O)O)c2)o1` [CBK077952], 89.4%.
In the case of `COC(=O)c1ccc(C)c(NS(=O)(=O)c2cc(Cl)ccc2Cl)c1` [CBK077971], the viability at 28.5 h, 10 µM worked out at 90.9%.
As to `O=C(O)c1cc(-c2ccc(/C=C3\NC(=O)N(Cc4ccccc4)C3=O)o2)ccc1Cl` [CBK078117], the viability at 28.5 h, 10 µM was 98.9%.
The value for `COc1ccccc1CNc1ccc(C(=O)O)cc1` [CBK078187] was 106%; that for `O=C(Nc1ccccc1C(=O)O)c1ccc(-c2ccc(Cl)cc2Cl)o1` [CBK078453] was 105%.
To `C=CCOc1ccc(Cl)cc1CNc1cccc(C(=O)O)c1` [CBK078460] belongs 96.6%.
As to `O=C(O)CCC(=O)Nc1ccc(N2CCN(CCO)CC2)cc1` [CBK078486], the viability at 28.5 h, 10 µM is 94.5%.
To `CCOC(=O)c1sc(-c2ccc(C(C)(C)C)cc2)nc1O` [CBK078538] belongs 92.3%.
The value for `CCOC(=O)c1sc(-c2c(Cl)cc(C(F)(F)F)cc2Cl)nc1O` [CBK078547] was 114%; that for `CC(=O)N1CCc2cc(C)ccc2C12CCN(CCCOc1ccccc1)CC2` [CBK081064] was 92.4%.
The value for `Cc1ccc2c(c1)CCN(S(C)(=O)=O)C21CCN(CCCOc2ccccc2)CC1` [CBK081066] was 96.8%; that for `CCOC(=O)c1sc(-c2cccc(C)n2)nc1O` [CBK081083] was 84.5%.
With `CCC1CCCCN1C(=O)c1ccnc(C)c1` (stereo not shown) [CBK081093], the viability at 28.5 h, 10 µM was 91.3%.
The value for `COc1cc(NC(=O)N[C@@H]2CN(C)C[C@H]2c2ccc(OC)c(OC)c2)cc(OC)c1` [CBK081112] was 93%.
In the case of `CCCc1[nH]nc(O)c1CCc1ccc(OC)cc1OC` [CBK081123], the viability at 28.5 h, 10 µM worked out at 95.5%.
To `CCCc1[nH]nc(O)c1CCc1ccc(OC)cc1` [CBK081128] belongs 102%.
Turning to `O=C(O)CCCc1[nH]nc(O)c1Cc1c(Cl)cccc1Cl` [CBK081137], the viability at 28.5 h, 10 µM amounted to 105%.
To `Cn1c2c(c3ccccc31)CCOC21CCNCC1` [CBK081142] belongs 99.3%.
`CCC1CCCCN1C(=O)c1ccc(C(F)(F)F)cc1` (stereo not shown) [CBK081165]: the viability at 28.5 h, 10 µM came out at 107%.
To `CSc1ccc(-c2cnc3nc(N)ccc3c2)cc1` [CBK081169] belongs 85.2%.
To `Nc1cc2cccnc2c(-c2ccc3c(c2)CCO3)n1` [CBK081173] belongs 98%; to `COc1cc(F)ccc1-c1nc(N)cc2cccnc12` [CBK081176], 88.9%; to `Nc1c(-c2cccc(C(F)(F)F)c2)cnc2cccnc12` [CBK081187], 88.7%.
To `COc1cc(-c2cnc3cccnc3c2N)cc(OC)c1OC` [CBK081190] belongs 93.1%; to `CCCCc1ccc(-c2cc3ncccc3nc2N)cc1` [CBK081198], 96.3%.
On to `Nc1nc2cccnc2cc1-c1cccc(C(F)(F)F)c1` [CBK081200], for which the viability at 28.5 h, 10 µM was 103%.
To `Nc1nc2cccnc2cc1-c1ccc2c(c1)OCCCO2` [CBK081201] belongs 97.7%; to `COc1ccc(C(C)C)cc1-c1cnc2cccnc2c1N` [CBK081211], 105%.
For the compound `Nc1nc2cccnc2cc1-c1ccsc1` [CBK081214], the viability at 28.5 h, 10 µM was 85.8%.
Take `CCCCc1ccc(-c2nc(NC(=O)NCC)cc3cccnc23)cc1` [CBK081231]: the viability at 28.5 h, 10 µM is 94.6%.
Turning to `CCNC(=O)Nc1nc2cccnc2cc1-c1ccc(OC)c(C)c1` [CBK081241], the viability at 28.5 h, 10 µM amounted to 94.6%.
Take `CC(C)C(=O)Nc1cc2cccnc2c(-c2ccsc2)n1` [CBK081259]: the viability at 28.5 h, 10 µM was found to be 100%.
The value for `CSc1ccc(-c2nc(NC(=O)C(C)C)cc3cccnc23)cc1` [CBK081262] was 100%; that for `CC(C)(C)c1ccc(-c2cnc3nc(O)ccc3c2)cc1` [CBK081284] was 74.6%; that for `Oc1ccc2cc(-c3cccc(C(F)(F)F)c3)cnc2n1` [CBK081285] was 59.5%.
`Oc1c(-c2cccc(C(F)(F)F)c2)cnc2cccnc12` [CBK081290]: the viability at 28.5 h, 10 µM amounted to 87.1%.

Values taken from article PMC12040169 (PLOS Biology, 2025).
